Results: US10428140B2, “Anti-EphA4 antibody” (EISAI R&D MANAGEMENT CO., LTD., priority 2015, dated 2019)

Molecular target: T1, mouse EphA4 (binding to mouse Ephrin A1) (Mus musculus, UniProt Q03137)
T1 construct: made in house; host or cells: HEK293EBNA cells
Test: Mouse EphA4-mouse ligand binding inhibition ELISA (Ephrin A1-Fc)
Conditions: mouse Ephrin A1 and Ephrin B2; 0.03-1000 μM
Experimental: Antibody A obtained in Example 1 was evaluated for its inhibitory activity against the binding between mouse EphA4 and its mouse ligand according to the following steps. Each well of a 96-well plate (Nunc) was coated with an anti-alkaline phosphatase antibody (Thermo Fisher Scientific). After incubation overnight at 4° C., each well was blocked with 1% BlockAce (DS Pharma Biomedical) at room temperature for 1 hour. After washing with 0.05% Tween 20/PBS (Thermo Fisher Scientific) three times, the mouse EphA4 extracellular region-SEAP-His protein obtained by the method of Example 1 was added (final concentration: 10 nM) to each well and incubated at room temperature for 1 hour. After washing three times, ligands and serially diluted antibody A (0, 0.001, 0.003, 0.01, 0.03, 0.1, 0.3, 1,3, 10, 30, 100, 300, and 1000 nM) or a known EphA4 inhibitor KYL peptide (KYLPYWPVLSSL, 0, 0.003, 0.01, 0.03, 0.1, 0.3, 1, 3, 10, 30, and 100 μM, its synthesis was outsourced to Hokkaido System Science) or compound 1 (0, 0.03, 0.1, 0.3, 1,3, 10, 30, 100, 300, and 1000 μM, Formula 1, Matrix Scientific) were added to each well. The ligands used were mouse Ephrin A1-Fc chimera (R&D Systems, final concentration: 20 nM) and mouse Ephrin B2-Fc chimera (R&D Systems, final concentration: 0.6 nM). […] The absorbance at 450 nm was read using a microplate reader (Molecular Devices).

T1 sequence (Q03137 with tags, fused parts or gaps): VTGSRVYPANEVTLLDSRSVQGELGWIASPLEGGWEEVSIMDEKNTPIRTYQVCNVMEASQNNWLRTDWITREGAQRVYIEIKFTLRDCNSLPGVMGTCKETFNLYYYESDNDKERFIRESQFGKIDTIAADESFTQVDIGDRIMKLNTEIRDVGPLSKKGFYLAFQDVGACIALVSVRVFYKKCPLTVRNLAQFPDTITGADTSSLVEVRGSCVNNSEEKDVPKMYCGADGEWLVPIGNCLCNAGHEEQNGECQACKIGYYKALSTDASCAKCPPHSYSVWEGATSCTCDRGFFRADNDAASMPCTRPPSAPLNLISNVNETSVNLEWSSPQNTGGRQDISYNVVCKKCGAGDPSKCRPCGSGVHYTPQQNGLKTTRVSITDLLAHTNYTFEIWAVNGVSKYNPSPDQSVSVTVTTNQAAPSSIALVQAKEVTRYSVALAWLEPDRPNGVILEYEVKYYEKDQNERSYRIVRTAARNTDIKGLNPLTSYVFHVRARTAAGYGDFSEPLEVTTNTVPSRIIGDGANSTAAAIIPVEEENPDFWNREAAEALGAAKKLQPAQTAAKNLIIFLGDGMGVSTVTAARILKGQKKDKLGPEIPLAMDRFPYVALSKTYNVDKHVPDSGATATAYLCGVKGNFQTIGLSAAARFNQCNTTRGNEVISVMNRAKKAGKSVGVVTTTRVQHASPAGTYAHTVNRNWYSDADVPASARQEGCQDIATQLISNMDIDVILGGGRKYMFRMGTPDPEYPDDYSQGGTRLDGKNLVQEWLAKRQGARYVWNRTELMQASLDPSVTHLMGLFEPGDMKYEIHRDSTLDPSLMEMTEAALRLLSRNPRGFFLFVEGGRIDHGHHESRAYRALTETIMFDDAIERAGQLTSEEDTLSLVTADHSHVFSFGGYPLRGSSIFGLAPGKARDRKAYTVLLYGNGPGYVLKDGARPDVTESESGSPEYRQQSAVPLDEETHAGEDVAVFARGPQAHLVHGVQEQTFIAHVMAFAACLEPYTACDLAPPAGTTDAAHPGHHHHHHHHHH

Cc1ccc(C)n1-c1ccc(C(=O)O)c(O)c1 [Compound 1, reference compound]
inhibition of binding between mouse EphA4 and mouse ligand (in words): weaker activity, and no concentration dependence was found
